{
  "source": "paper PMC6511062",
  "about": "“Preclinical candidate for the treatment of visceral leishmaniasis that acts through proteasome inhibition” (Proceedings of the National Academy of Sciences of the …, 2019)",
  "key": {"[1]": {"tested_on": "L. donovani promastigotes", "experiment": "Cell cycle (FACS) analysis, L. donovani promastigotes", "type": "cell-based, Leishmania donovani", "conditions": "5x EC50", "description": "(§1) consisted of 1 µL (40 ng) of cDNA, 10 µL of Brilliant III Ultra-Fast QPCR Master Mix (Agilent Technologies), 1 µL (500 nM) each of the forward and reverse primers, and 0.3 µl (30 nM) of reference dye and nuclease-free PCR grade-treated water. PCR was performed using an Agilent Mx3005P machine with the following cycling conditions:\n(§2) 95°C for 3 min; 40 cycles of 95°C for 20 s; then 60 °C for 20 s. The reference gene TERT (Tb927.11.10190, telomerase reverse transcriptase) was used to provide a baseline of transcription levels for normalization of the data. Relative quantification in the tetracycline-induced cell lines were normalized to the un-induced cell line using the […]\n(§3) h. Morphological analysis […]\n(§4) Cultures of bloodstream T. brucei and L. donovani promastigotes at starting cell densities of 5 x 105 were incubated with concentrations of compound 7 equivalent to 5x their respective EC50 values. […] After washing, cell densities were adjusted to 5 × 10^5 cells mL, re-suspended in 500 µL of PBS containing 50 µg/mL propidium iodide, 50 µg/mL RNase and 0.1% Triton X-100, incubated at room temperature for 20 min in the dark and analysed using FACSort analytical flow cytometer using Cellquest software (BD Biosciences). j. […]"}, "[2]": {"tested_on": "L. donovani promastigotes", "experiment": "Morphological analysis by transmission EM", "type": "cell-based, Leishmania donovani", "conditions": "two times EC50, 6 h", "description": "Profound morphological changes were evident in parasites treated with compounds from this series. To gain additional insight into these compound-induced changes, L. donovani promastigotes were treated with 7 at a concentration equivalent to two times the established EC50 value for 6 h before analysis by transmission EM. […] In addition, there was a significant accumulation of intracellular vesicles within treated parasites (SI Appendix, Fig. S8). Based on our target identification studies, we reasoned that an inability to recycle key proteins via the proteasome left these parasites overcome by their own waste protein products. […]\n95°C for 3 min; 40 cycles of 95°C for 20 s; then 60 °C for 20 s. […] Relative quantification in the tetracycline-induced cell lines were normalized to the un-induced cell line using the […]\nas §4"}, "[3]": {"tested_on": "bloodstream T. brucei", "experiment": "Cell cycle (FACS) analysis, bloodstream T. brucei", "type": "cell-based, Trypanosoma brucei", "conditions": "5x EC50", "description": "as §1, §2, §3, §4"}, "[4]": {"tested_on": "Host Cell", "experiment": "Host cell toxicity in the clinical strain panel", "type": "cell-based", "description": "page 46: Supplementary Tables Table S1. […] MHOM/IN/2002/BHU1 0.6 >50 […] Results from one or two (both values shown) biological replicates. Table S2. […] Data represents % of reduction of parasite burden in drug- treated and vehicle control animals calculated from mean LDU data."}, "[5]": {"tested_on": "TA98", "experiment": "Ames test, strain TA98", "description": "oxidative metabolism system (S9-mix). The maximum concentration tested and […]\nCompound 7a was tested in a bacterial mutation screening assay (Ames test) with Salmonella typhimurium TA1535, TA1537, TA98, TA100 and Escherichia coli WP2uvrA(pKM101) in the presence and absence of an exogenous mammalian […]\nThe bacterial mutation screening assay was a plate incorporation test carried out as previously described15 and according to current methodology. […]"}, "[6]": {"experiment": "7 day oral repeat-dose rat toxicology and toxicokinetics", "conditions": "for tolerability: male rats, oral", "description": "b. 7 day rat toxicology studies\nA 7 day oral repeat-dose study in male rats was conducted to determine the toxicity […]\nGroups of male rats (4/group toxicity; 3/group […]\nup to 7 days by oral gavage. […]"}},
  "data": [
    {"compound": "O=C(Nc1ccc(F)c(-c2cn3nc(-c4ccccc4)cnc3n2)c1)N1CCCC1", "note": "[Compound 7]", "values": [
      {"measurement": "effect on cell cycle progression", "setting": "[1]", "result": "accumulation of cells in G2/M"},
      {"measurement": "morphological changes (transmission EM)", "setting": "[2]", "result": "swelling of promastigotes"},
      {"measurement": "effect on cell cycle progression", "setting": "[3]", "result": "accumulation of cells in G2/M"}
    ]},
    {"compound": "O=C(Nc1ccc(F)c(-c2ccn3c(N4CCOCC4)cnc3n2)c1)N1CCCC1", "note": "[Compound 8]", "values": [
      {"measurement": "EC50", "setting": "[4]; strain MHOM/ET/67/HU3 (LV9)", "result": "> 50", "unit": "µM"},
      {"measurement": "EC50", "setting": "[4]; strain MHOM/IN/80/DD8", "result": "> 50", "unit": "µM"},
      {"measurement": "EC50", "setting": "[4]; strain MHOM/IN/2002/BHU1", "result": "> 50", "unit": "µM"},
      {"measurement": "EC50", "setting": "[4]; strain MHOM/MA/67/ITMAP263", "result": "> 50", "unit": "µM"},
      {"measurement": "EC50", "setting": "[4]; strain SUKA001", "result": "> 50", "unit": "µM"},
      {"measurement": "Mean revertants per plate", "setting": "[5]; with S9-mix, dose level 50 per plate", "result": 23.0},
      {"measurement": "Mean revertants per plate", "setting": "[5]; with S9-mix, dose level 150 per plate", "result": 25.0},
      {"measurement": "Mean revertants per plate", "setting": "[5]; with S9-mix, dose level 500 per plate", "result": 30.0},
      {"measurement": "Mean revertants per plate", "setting": "[5]; with S9-mix, dose level 1500 per plate", "result": 24.5},
      {"measurement": "Mean revertants per plate", "setting": "[5]; with S9-mix, dose level 2500 per plate", "result": 25.5},
      {"measurement": "Mean revertants per plate", "setting": "[5]; with S9-mix, dose level 5000 per plate", "result": 25.0},
      {"measurement": "Mean revertants per plate", "setting": "[5]; without S9-mix, dose level 50 per plate", "result": 22.5},
      {"measurement": "Mean revertants per plate", "setting": "[5]; without S9-mix, dose level 150 per plate", "result": 19.0},
      {"measurement": "Mean revertants per plate", "setting": "[5]; without S9-mix, dose level 500 per plate", "result": 14.5},
      {"measurement": "Mean revertants per plate", "setting": "[5]; without S9-mix, dose level 1500 per plate", "result": 19.5},
      {"measurement": "Mean revertants per plate", "setting": "[5]; without S9-mix, dose level 2500 per plate", "result": 16.5},
      {"measurement": "Mean revertants per plate", "setting": "[5]; without S9-mix, dose level 5000 per plate", "result": 18.0},
      {"measurement": "margin to the predicted human blood AUC0-24", "setting": "[6]; 300 mg/kg/day", "result": 37, "unit": "fold"},
      {"measurement": "tolerability", "setting": "[6]; 1000 mg/kg/day", "result": "not tolerated"},
      {"measurement": "tolerability", "setting": "[6]; 100 and 300 mg/kg/day, 7 days", "result": "tolerated over the 7 days"},
      {"measurement": "rat 7-d toxicology study outcome", "setting": "[6]; doses up to 300 mg/kg", "result": "no significant safety or tolerability liabilities were detected"},
      {"measurement": "safety margin", "setting": "[6]; male, rat, in vivo, 300 mg/kg, 7 days", "result": "at least 37 fold"}
    ]}
  ]
}
